Measured values from patent US12396990B2, “Application of 5-hydroxytryptamine receptor 1A in preparing drug for portal hypertension” (SECOND AFFILIATED HOSPITAL, SECOND MILITARY MEDICAL …, priority 2018, dated 2025).
“Also recorded” adds a separate entry of the source. Marks after values point to notes of the source that are not given here.

Experiments:
isolated portal veins = assay: Contractile tension of isolated portal veins; design: species or system Male Wistar rats; conditions: for Effect of agonist on contractile tension of isolated portal vein: cumulative concentrations, 3 minutes each, agonist alone; for Effect of antagonist on 5-HT induced contraction of isolated portal vein: pre-incubation with antagonist for 20 minutes before 5-HT; for Effect of antagonist on 8-OH-DPAT induced contraction of isolated portal vein: pre-incubation with antagonist for 20 minutes before 8-OH-DPAT; for Effect of antagonist on F11440 induced contraction of isolated portal vein: pre-incubation with antagonist for 20 minutes before F11440
Text: Effects of the selective agonist and antagonist of HTR1A on contractile tension of isolated portal vein.
1) Male Wistar rats, weighting 140 g to 160 g, were anesthetized with inhalational isopentane through a mask. The portal veins were gently isolated from the animals and 3-5 mm of the vessel was removed under the anatomical microscope from the connective tissue, and then the vessel was placed in a cold Tyrode solution (NaCl: 148.9, KCl: 2.7, CaCl2: 1.8, NaPO4H2: 0.2, NaCO3H: 11.9, MgCl2: 1.2, glucose: 5.5 mM). Isolated portal veins were mounted in 20 ml jacketed tissue baths containing the appropriate Tyrode solution (37±0.5° C., PH=7.4) constantly bubbled with O2, by suspending them between two L-shaped stainless-steel hooks. The lower hooks were fixed and the upper hooks were attached to force-displacement transducers. Isometric force was measured and recorded using the ALC-MPA software associated with the equipment.
2) A pre-load of 1 g was applied. After mounting, isolated portal veins were equilibrated for […]. The contractile response to depolarizing potassium solution was then assessed as a test for viability. The depolarizing KCl solution (80 mM) had the same composition as the Tyrode solution used, except for the NaCl that had been completely replaced by an equimolar amount of KCl. The iPVs were washed with Tyrode solution four times and re-equilibrated for another […].
3) To evaluate the effects of 5-HT or HTR1A agonist on the contraction of iPVs, serotonin or selective agonist of HTR1A (8-OH-DPAT and F11440) was directly administrated into the tissue baths for 3 minutes in cumulatively concentrations, and the magnitude of contractile tension was recorded. To evaluate the effects of HTR1A antagonist, a pre-incubation with selective antagonist of HTR1A (WAY 100635 and NAD 299) for 20 minutes was used before increasing administration of 5-HT or HTR1A agonist.
4) 5-HT, selective agonist of HTR1A (8-OH-DPAT and F11440), and selective antagonist of HTR1A (WAY 100635 and NAD 299) were purchased from Sigma, Selleck, Tocris, and TargetMol, respectively.

[1] = tested on: cirrhotic portal hypertensive rats induced by carbon tetrachloride (CCl4); assay: Portal pressure in cirrhotic portal hypertensive rats induced by CCl4, agonist 8-OH-DPAT (Example 3); type: in vivo, Male Wistar rats; conditions: CCl4 model
Text: (§1) 1) Self-made portal pressure measuring kit, which contains 24-Gauge scalp vein set (Y type) and catheter, and high-sensitive pressure sensor, biological signal processing system (SMUP-U, Jide experimental teaching equipment factory, Shanghai, China) were used to measure the portal pressure in rats.
(§2) 2) Connect all the catheters and device, check the tightness and set zero, then open the portal pressure measuring kit, connect the catheter with the scalp vein set and high-sensitive pressure sensor, following the connection between pressure sensor and biological signal processing system. Fill all the catheters with heparin sodium saline (volume of heparin sodium and saline: 1.25 WU: 500 ml), eliminate the air bubbles and close the catheter. Then remove the needle in the scalp vein set, place it horizontally at the portal vein height of the rat (supine position). The zero point was set after opening the catheter in the biological collection system software.
3) Rats were anesthetized with inhalational isopentane through a mask. A midline abdominal incision was made, and the portal vein was cannulated with a 24-Gauge scalp vein set, connecting with a catheter filled heparin-saline, to measure PP. […]
4) After one-week treatment, portal pressure of all the rats were measured and rats were sacrificed for liver tissues. […]

[2] = tested on: cirrhotic portal hypertensive rats induced by carbon tetrachloride (CCl4); assay: Portal pressure in cirrhotic portal hypertensive rats induced by carbon tetrachloride (CCl4), antagonists (Example 2); type: in vivo, Male Wistar rats; conditions: CCl4 model; for Effect on portal pressure / Portal pressure: WAY 100635 1 mg/kg i.p.; for Effect on portal pressure: alverine 15 mg/kg by gavage, once per day; for Portal pressure: alverine 15 mg/kg p.o., means ±SEM; for Portal pressure / Effect on portal pressure compared with carvedilol: carvedilol 10 mg/kg p.o.; for Portal pressure / Change of portal pressure vs. Vehicle: once per day for one week; for Change of portal pressure vs. Vehicle: same dosing
Text: 1) Self-made portal pressure measuring kit, which contains 24-Gauge scalp vein set (Y type) and catheter, and high-sensitive pressure sensor, biological signal processing system (SMUP-U, Jide experimental teaching equipment factory, Shanghai, China) were used to measure the portal pressure in rats. 2) Connect all the catheters and device, check the tightness and set zero, then open the portal pressure measuring kit, connect the catheter with the scalp vein set and high-sensitive pressure sensor, following the connection between pressure sensor and biological signal processing system. Fill all the catheters with heparin sodium saline (volume of heparin sodium and saline: 1.25 WU: 500 ml), eliminate the air bubbles and close the catheter. Then remove the needle in the scalp vein set, place it horizontally at the portal vein height of the rat (supine position). The zero point was set after opening the catheter in the biological collection system software. 3) Rats were anesthetized with inhalational isopentane through a mask. A midline abdominal incision was made, and the portal vein was cannulated with a 24-Gauge scalp vein set, connecting with a catheter filled heparin-saline, to measure PP. Effects of the selective antagonist of HTR1A WAY 100635, and alverine on portal pressure (PP) in cirrhotic portal hypertensive rats induced by carbon tetrachloride (CCl4). 1) Thirty-one male Wistar rats, weighting 140 g to 160 g, were randomly divided into normal control group (N=7) and CCl4 group (N=24). Rats in CCl4 group were subjected to intraperitoneally (i.p.) injections of CCl4 at 0.25 ml/kg (diluted 1:3 v/v in olive oil) twice per week for 12 weeks to induce cirrhotic portal hypertension, while the normal controls received injections of olive oil at the same timepoint. At the beginning of the eleventh week, rats in CCl4 group were randomly divided into four groups: Vehicle group (N=7), Alverine group (N=6), WAY 100635 group (N=5), and carvedilol group (N=6). 2) Alverine was diluted in sterile normal saline at a concentration of 5 mg/ml and delivered to the rats in Alverine group via gavage (p.o.). WAY 100635 was diluted in sterile normal saline at a concentration of 1 mg/ml and peritoneally injected (i.p.) into the rats in WAY 100635 group. Carvedilol was diluted in sterile normal saline at a concentration of 1 mg/ml and delivered to the rats in carvedilol group via gavage. 3) Rats in the Alverine group, WAY 100635 group, and carvedilol group were received alverine 15 mg/kg p.o.+saline i.p., saline p.o.+WAY 100635 1 mg/kg i.p., carvedilol 10 mg/kg p.o.+saline i.p., respectively once per day for one week, while rats in vehicle group received saline p.o. and saline i.p. at the same timepoint. 4) After one-week treatment, portal pressure of all the rats were measured and rats were sacrificed for liver tissues. Similar as that in embodiment example 1.

[3] = tested on: cirrhotic portal hypertensive rats induced by thioacetamide (TAA); assay: Portal pressure in cirrhotic portal hypertensive rats induced by thioacetamide (TAA); type: in vivo, Male Wistar rats; conditions: TAA model; for Effect on portal pressure / Portal pressure: WAY 100635 1 mg/kg i.p.; for Effect on portal pressure: alverine 15 mg/kg by gavage, once per day; for Portal pressure: alverine 15 mg/kg p.o., means ±SEM; for Portal pressure / Effect on portal pressure compared with carvedilol: carvedilol 10 mg/kg p.o.; for Portal pressure / Change of portal pressure vs. Vehicle: once per day for one week; for Change of portal pressure vs. Vehicle: same dosing
Experimental: Effects of the selective antagonist of HTR1A WAY 100635, and alverine on portal pressure (PP) in cirrhotic portal hypertensive rats induced by thioacetamide (TAA).
Male Wistar rats, weighting about 140 to 160 grams (g) each, were purchased from SLAC Laboratory Animal Co., Ltd (Shanghai, China) and housed under standard animal laboratory conditions in the experimental animal center of Second Military Medical University (Shanghai, China). All animal experiments in this study were performed in accordance with protocols approved by the local Ethical Committee of the Second Military Medical University.
1) Thirty-five male Wistar rats, weighting 140 g to 160 g, were randomly divided into normal control group (N=8) and TAA group (N=27). Rats in TAA group were subjected to intraperitoneally (i.p.) injections of TAA (purchase from […]) at 200 mg/kg, which is diluted in sterile normal saline (NS; 0.9% sodium chloride), 3 times per week for 16 weeks to induce cirrhotic portal hypertension. The normal controls received injections of NS at the same timepoint. At the beginning of the 17th week, rats in TAA group were randomly divided into four groups: Vehicle group (N=7), Alverine group (N=7), WAY 100635 group (N=7), and carvedilol group (N=6).
2) Alverine (purchase from TargetMol) was diluted in the saline at a concentration of 5 mg/ml and delivered to the rats in Alverine group via gavage (p.o.). WAY 100635 (purchase from Selleck) was diluted in sterile normal saline at a concentration of 1 mg/ml and peritoneally injected (i.p.) into the rats in WAY 100635 group. Carvedilol (purchase from TargetMol) was diluted in sterile normal saline at a concentration of 1 mg/ml and delivered to the rats in carvedilol group via gavage.
3) Rats in the Alverine group, WAY 100635 group, and carvedilol group were received alverine 15 mg/kg p.o.+saline i.p., saline p.o.+WAY 100635 1 mg/kg i.p., carvedilol 10 mg/kg p.o.+saline i.p., respectively once per day for one week, while rats in vehicle group received saline p.o. and saline i.p. at the same timepoint.
4) After one-week treatment, portal pressure of all the rats were measured and rats were sacrificed for liver tissues.
as §1, §2
3) Rats were anesthetized with inhalational isopentane through a mask. A midline abdominal incision was made, and the portal vein was cannulated with a 24-Gauge scalp vein set, connecting with a catheter filled heparin-saline, to measure PP.
Data were presented as the means ±SEM. One-way analysis of variance (ANOVA) and student's t-tests were performed to compare data between two groups, and a P value of less than 0.05 was considered statistically significant.

Question: `NCCc1c[nH]c2ccc(O)cc12` [5-HT, 5-hydroxytryptamine] was tested. Which “Effect of agonist on contractile tension of isolated portal vein” value (isolated portal veins) did it give?
Answer: concentration-dependent contraction

Question: What does the source list for `CCCN(CCC)C1CCc2cccc(O)c2C1` (stereo not shown) [8-OH-DPAT]?
Answer: Effect of agonist on contractile tension of isolated portal vein (isolated portal veins): considerably increased the contractile force of iPVs in a concentration-dependent manner; Effect on portal pressure ([1]; 8-OH-DPAT 1 mg/kg i.p. once per day): increased; also recorded: significantly increase; Portal pressure ([1]; 8-OH-DPAT 1 mg/kg i.p. once per day for one week, means ±SEM): 11.66 ± 1.89 cmH2O

Question: How did the “Effect on portal pressure” value [2] turn out when `CCN(CCCc1ccccc1)CCCc1ccccc1` [Alverine] was run?
Answer: significantly decrease

Question: And the Portal pressure [2]?
Answer: 6.94 ± 0.98 cmH2O

Question: What about the “Effect on portal pressure compared with carvedilol” value (shortened to “Effect … compared with carvedilol”) [2] of the same compound?
Answer: not significantly different

Question: And the “Change of portal pressure vs. Vehicle” value [2]?
Answer: (−41.44%*, P = 0.0065)

Question: What about the “Effect on portal pressure” value [3] of the same compound?
Answer: significantly decreased

Question: What about the Portal pressure [3] of the same compound?
Answer: 12.98 ± 1.74 cmH2O

Question: What about the “Effect … compared with carvedilol” value [3] of the same compound?
Answer: not significantly different

Question: And the “Change of portal pressure vs. Vehicle” value [3]?
Answer: (−38.39%^#, P < 0.0001)

Question: Which results are given for `COc1ccccc1OCCNCC(O)COc1cccc2[nH]c3ccccc3c12` (stereo not shown) [Carvedilol]?
Answer: Portal pressure [2]: 7.99 ± 1.37 cmH2O; Change of portal pressure vs. Vehicle [2]: (−32.58%^#, P = 0.0200); Portal pressure [3]: 14.01 ± 4.14 cmH2O; Change of portal pressure vs. Vehicle [3]: (−33.54%^#, P = 0.0025)

Question: Which “Effect of agonist on contractile tension of isolated portal vein” value (isolated portal veins) does the source give for `Cn1c(=O)cnn(CCCCN2CCN(c3ncccn3)CC2)c1=O` [F11440] here?
Answer: considerably increased the contractile force of iPVs in a concentration-dependent manner

Question: For `NC(=O)c1ccc(F)c2c1C[C@@H](N(C1CCC1)C1CCC1)CO2` [NAD 299], which “Effect of antagonist on 5-HT induced contraction of isolated portal vein” value (isolated portal veins) is on record?
Answer: abrogated

Question: And the “Effect of antagonist on 8-OH-DPAT induced contraction of isolated portal vein” value (isolated portal veins)?
Answer: almost completely inhibited

Question: And the “Effect of antagonist on F11440 induced contraction of isolated portal vein” value (isolated portal veins)?
Answer: almost completely inhibited

Question: For `COc1ccccc1N1CCN(CCN(C(=O)C2CCCCC2)c2ccccn2)CC1` [WAY 100635], which “Effect of antagonist on 5-HT induced contraction of isolated portal vein” value (isolated portal veins) is on record?
Answer: abrogated

Question: What about the “Effect of antagonist on 8-OH-DPAT induced contraction of isolated portal vein” value (isolated portal veins) of the same compound?
Answer: almost completely inhibited

Question: And the “Effect of antagonist on F11440 induced contraction of isolated portal vein” value (isolated portal veins)?
Answer: almost completely inhibited

Question: What about the “Effect on portal pressure” value [2] of the same compound?
Answer: significantly decrease

Question: What about the Portal pressure [2] of the same compound?
Answer: 7.36 ± 2.14 cmH2O

Question: And the “Effect … compared with carvedilol” value [2]?
Answer: not significantly different

Question: And the “Change of portal pressure vs. Vehicle” value [2]?
Answer: (−37.88%^#, P = 0.0125)

Question: What about the “Effect on portal pressure” value [3] of the same compound?
Answer: significantly decreased

Question: What about the Portal pressure [3] of the same compound?
Answer: 13.27 ± 3.00 cmH2O

Question: What about the “Effect … compared with carvedilol” value [3] of the same compound?
Answer: not significantly different

Question: And the “Change of portal pressure vs. Vehicle” value [3]?
Answer: (−37.04%^#, P = 0.0001)
